Columns and labels:
Assay in all cases: relative viability (nuclei count vs DMSO), 5 days (fraction); higher = more cells survive
AZ505 + Luminespib = compound: C1CCC(CC1)N(CCNCCC2=C3C(=C(C=C2)O)NC(=O)CO3)C(=O)CCNCCC4=CC(=C(C=C4)Cl)Cl [AZ505] + CCNC(=O)c1noc(-c2cc(C(C)C)c(O)cc2O)c1-c1ccc(CN2CCOCC2)cc1 [Luminespib] (partner 0.01 µM)
Method in brief: (§1)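 Five library-drug doses in √10 steps were combined with a fixed anchor-drug dose, or a single drug was given alone, by pin tool to lung cancer cell lines in 1536-well plates the day after seeding. Nuclei were stained and counted after 5 days. Relative viability is the nuclei count in treated wells over that in vehicle wells, taken as the median of duplicate plates.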

Dactolisib + Pictilisib = compound: Cn1c(=O)n(-c2ccc(C(C)(C)C#N)cc2)c2c3cc(-c4cnc5ccccc5c4)ccc3ncc21 [Dactolisib] + CS(=O)(=O)N1CCN(Cc2cc3nc(-c4cccc5[nH]ncc45)nc(N4CCOCC4)c3s2)CC1 [Pictilisib] (partner 1 µM)
Method in brief: as §1

AZ505 + Trametinib = compound: C1CCC(CC1)N(CCNCCC2=C3C(=C(C=C2)O)NC(=O)CO3)C(=O)CCNCCC4=CC(=C(C=C4)Cl)Cl [AZ505] + CC(=O)Nc1cccc(-n2c(=O)n(C3CC3)c(=O)c3c(Nc4ccc(I)cc4F)n(C)c(=O)c(C)c32)c1 [Trametinib] (partner 0.02 µM)
Method in brief: as §1

Dactolisib + Olaparib = compound: Cn1c(=O)n(-c2ccc(C(C)(C)C#N)cc2)c2c3cc(-c4cnc5ccccc5c4)ccc3ncc21 [Dactolisib] + O=C(c1cc(Cc2n[nH]c(=O)c3ccccc23)ccc1F)N1CCN(C(=O)C2CC2)CC1 [Olaparib] (partner 8 µM)
Method in brief: as §1

Cell Line	relative viability (AZ505 + Luminespib; first compound 0.08 µM)	relative viability (AZ505 + Luminespib; first compound 0.253 µM)	relative viability (AZ505 + Luminespib; first compound 0.8 µM)	relative viability (AZ505 + Luminespib; first compound 2.53 µM)	relative viability (AZ505 + Luminespib; first compound 8 µM)	relative viability (Dactolisib + Pictilisib; first compound 0.002 µM)	relative viability (Dactolisib + Pictilisib; first compound 0.006325 µM)	relative viability (Dactolisib + Pictilisib; first compound 0.02 µM)	relative viability (Dactolisib + Pictilisib; first compound 0.06325 µM)	relative viability (Dactolisib + Pictilisib; first compound 0.2 µM)	relative viability (AZ505 + Trametinib; first compound 0.08 µM)	relative viability (AZ505 + Trametinib; first compound 0.253 µM)	relative viability (AZ505 + Trametinib; first compound 0.8 µM)	relative viability (AZ505 + Trametinib; first compound 2.53 µM)	relative viability (AZ505 + Trametinib; first compound 8 µM)	relative viability (Dactolisib + Olaparib; first compound 0.002 µM)	relative viability (Dactolisib + Olaparib; first compound 0.006325 µM)	relative viability (Dactolisib + Olaparib; first compound 0.02 µM)	relative viability (Dactolisib + Olaparib; first compound 0.06325 µM)	relative viability (Dactolisib + Olaparib; first compound 0.2 µM)
201T	1.01	1.05	1.01	1.02	1.08	0.753	0.661	0.661	0.538	0.539	0.688	0.716	0.722	0.705	0.711	0.833	0.824	0.849	0.782	0.54
A549						0.544	0.356	0.3	0.145	0.112						0.286	0.302	0.244	0.122	0.0942
A-427	0.708	1.02	0.789	1.01	1.38	0.648	0.674	0.718	0.49	0.498	0.705	0.776	0.631	0.738	0.743	0.877	0.675	0.707	0.619	0.495
ABC-1	0.865	0.472	0.524	0.839	0.717	0.675	0.618	0.627	0.402	0.331						0.911	0.862	0.952	1.1	0.613
BEN	0.367	0.564	0.352	0.336	0.449	0.505	0.529	0.463	0.4	0.282	0.971	1.08	0.972	1	1.08	0.988	0.939	1.08	0.635	0.478
CAL-12T	0.341	0.596	0.265	0.377	0.64	0.407	0.408	0.358	0.251	0.254	0.335	0.414	0.312	0.36	0.337	0.822	0.662	0.496	0.286	0.271
COR-L23	0.54	0.771	0.611	0.613	0.706	0.925	0.656	0.546	0.177	0.151	0.45	0.516	0.519	0.534	0.482	0.345	0.351	0.312	0.182	0.141
COR-L 105	0.739	0.707	0.765	0.831	0.905	0.423	0.364	0.377	0.332	0.305	0.403	0.452	0.446	0.428	0.476	0.629	0.744	0.76	0.592	0.367
Calu-6						0.935	0.855	0.729	0.414	0.352						0.553	0.642	0.688	0.469	0.458
ChaGo-K-1	0.513	0.603	0.556	0.673	0.474	0.723	0.744	0.491	0.923	0.552	0.838	0.918	0.871	0.846	0.91	0.404	0.419	0.421	0.457	0.443
EBC-1						0.332	0.279	0.279	0.204	0.171						0.809	0.645	0.648	0.19	0.176
EKVX	0.873	0.615	0.831	0.846	0.91	0.402	0.433	0.37	0.293	0.241		0.326	0.321	0.414	0.397	0.661	0.867	0.861	0.469	0.331
EMC-BAC-2	1.14	1.13	1.23	1.03	1.19	0.528	0.542	0.512	0.379	0.341	0.83		0.876	0.82	0.902	0.613	0.433	0.464	0.372	0.356
EPLC-272H		0.161	0.373	0.25	0.301	0.316	0.239	0.332	0.373	0.24	0.308	0.292	0.307	0.277	0.269	0.807	0.486	0.512	0.284	0.232
H3255	0.887	0.811	0.939	0.876	0.963	0.513	0.44	0.473	0.35	0.339		0.604	0.543	0.578	0.611	0.559	0.56	0.499	0.475	0.399
HARA	0.622	0.32	0.444	0.628	0.324	0.469	0.34	0.366	0.277	0.236	0.454		0.62	0.504	0.71	1.23	0.858	0.898	0.684	0.24
HCC-15	0.264	0.323	0.346	0.312	0.302	0.762	0.746	0.707	0.392	0.343	0.278	0.391	0.341	0.366	0.372	0.957	0.699	0.699	0.535	0.39
